Data set [1] has as its system human ovarian cancer cell line A2780. Particulars: cited from earlier work.
Data set [2] deals with human ovarian cancer cell line A2780cisR (cisplatin-resistant). Conditions: cited from earlier work.
Data set [3] relates to human ovarian A2780 cancer cells. Description: Cancer cell cytotoxicity, SRB assay. The class given is cell-based. Conditions: 24 h exposure, 72 h recovery, SRB; read-out: A2780 IC50. Put shortly: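 Cells plated at 5000/well were dosed on day 3 with Ir^III complexes (0.05–100 μM, from DMSO stocks diluted into saline and medium) for 24 h. After washout they grew for 72 h in fresh medium before SRB protein staining as a survival read-out. Two independent experiments of three replicates each.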
Background: The SRB assay estimates cell density from bound dye.

The subject of a further data set is 9-ethylguanine (9-EtG). The data set is described as follows: Interactions with nucleobases: 9-EtG adduct formation (1H NMR). In kind it is binding. Particulars: 24 h; ca. 1.0 mM, 1 mol equiv 9-EtG, 20% MeOD-d4/80% D2O, 310 K. The method, then:
Interactions with Nucleobases. The reaction of ZL01, ZL03, ZL04, ZL07, ZL25, ZL33, ZL37, ZL38, ZL43 and ZL54 and ZL33A with nucleobases typically involved addition of a solution containing 1-2 mol equiv of nucleobase in D2O, to an equilibrium solution of ZL01, ZL03, ZL04, ZL07, ZL25, ZL33, ZL37, ZL38, ZL43, ZL54 and ZL33A in a solution of 5% MeOD-d4/95% D2O (v/v). ^1H NMR spectra of these solutions were recorded at 310 K after various time intervals.
Since DNA is a potential target site for transition metal anticancer complexes,^18 nucleobase binding reactions of compounds ZL01, ZL03, ZL04, ZL07, ZL25, ZL33, ZL33A, ZL37, ZL38, ZL43 and ZL54 with nucleobase models 9-ethylguanine (9-EtG) and 9-ethyladenine (9-EtA), were investigated. Solutions of ZL01, ZL03, ZL04, ZL07, ZL25, ZL33, ZL37, ZL38, ZL43 and ZL54 (1 mM) (containing an equilibrium mixture of these complexes and their respective aqua adducts) with 1 mol equivalent of 9-EtG or 9-EtA in D2O were prepared, and ^1H NMR spectra were recorded at different time intervals.
Interactions with Nucleobases. Since DNA is a potential target site for transition metal anticancer complexes,^23 the binding of 9-ethylguanine (9-EtG) to complexes ZL47, ZL49, ZL69, ZL74 and ZL107 was studied.

In a further data set the test system is colon COLO 205. Description: NCI screen, single cell line. In kind it is cell-based. An excerpt:
(§1) Six complexes, [(η^5-C5Me4C6H4C6H5)Ir(bpy)Cl]PF6 (ZL25, bpy=2,2′-bipyridine), [(η^5-C5Me4C6H5)Ir(phen)Cl]PF6 (ZL33, phen=1,10-phenanthroline), [(η^5-C5Me4C6H4C6H5) Ir(pico)Cl] (ZL43, pico=picolinate), [(η^5-C5Me5)Ir(2-phpy)Cl] (ZL47), [(η^5-C5Me4C6H4C6H5)Ir(2-phPY)(D2O)Cl] (ZL49) and [(η^5-C5Me4C6H4C6H5) Ir(phen)Cl]PF6 (ZL54), were selected by Developmental Therapeutics Program of National Cancer Institute (NCI, U.S.A.) for in vitro screening test, in which 5 complexes except ZL43 are selected for further testing. The five complexes were tested on ca. 60 cell lines within nine tumour type subpanels at five concentrations ranging from 0.01 to 100 μM.

In the next data set the test system is melanoma SK-MEL-5. Description: NCI screen, single cell line. In kind it is cell-based.
Source text: as §1

The subject of another data set is breast MDA-MB-468. Description: NCI screen, single cell line. The class given is cell-based.
Source text: as §1

Data set [4] in a line: Hydrolysis studies of C,N-chelated complexes and anation by NaCl (1H NMR). In kind it is physicochemical. Particulars: 20% MeOD-d4/80% D2O; equilibrium reached within ~5 min even at 278 K. An excerpt:
Hydrolysis Studies. The hydrolysis of complexes [(η^5-C5Me5)Ir(2-phpy)Cl] (ZL47), [(η^5-C5Me4C6H4C6H5)Ir(2-phpy)Cl] (ZL49), [(η^5-C5Me5) Ir(2-phq)Cl] (ZL68), [(η^5-C5Me5) Ir(tpy)Cl] (ZL69), [(η^5-C5Me5)Ir(2-dfphpy)Cl] (ZL74) and [(η^5-C5Me4C6H5)Ir(2-phpy) Cl] (ZL107) in 20% MeOD-d4/80% D2O (v/v) was monitored by ^1H NMR at different temperatures. The presence of methanol ensured the solubility of the complexes.

The subject of data set [5] is ca. 60 cell lines within nine tumour type subpanels. The class given is cell-based.
Source text: as §1

In a further data set the test system is MCF-7 cancer cell line. Particulars: cited from earlier work.
For another data set, the system named is HT-29 cancer cell line. Conditions: cited from earlier work.

Regarding `Cc1c(C)c(C)[c-](C)c1C.[Cl-].[Ir+3].c1ccc(-c2nccs2)nc1` [[(η^5-C5Me5)Ir (pyTz)Cl]^+], in [1], the “activity towards A2780 (in words)” value was “inactive”. The “activity towards A2780cisR (in words)” value in data set [2] was “inactive”.

The term IC50 denotes the concentration at which inhibition is half-maximal. Usually GI50 stands for the concentration at which growth is held to half of that of the control. By CC50 is commonly meant the concentration at which the toxic effect on the cells reaches its halfway point. Consider `Cc1c(C)c(C)[c-](-c2ccc(-c3ccccc3)cc2)c1C.[Cl-].[Ir+3].[c-]1ccccc1-c1ccccn1` [ZL49, [(η^5-C5Me4C6H4C6H5)Ir(2-phpy)Cl]], for which, in data set [3], the IC50 was 700 nM. Further, the guanine adducts formed in the data set on 9-ethylguanine (9-EtG) was 100%. The concentration for 50% growth inhibition (GI50) in the data set on colon COLO 205 is less than 200 nM; in the data set on melanoma SK-MEL-5, less than 200 nM; in the data set on breast MDA-MB-468 it was less than 200 nM; in [5] (ca. 60 cell lines, 0.01 to 100 μM, read-out: Mean graph midpoint (MID) GI50) it was 710 ± 10 nM. In addition, the “hydrolysis (in words)” value in data set [4] is “rapid hydrolysis”. The CC50 in [5] is 7080 ± 1050 nM. In data set [5] (ca. 60 cell lines, 0.01 to 100 μM), the “Mean graph midpoint (MID) TGI” value was found to be 2190 ± 150 nM. Also, in data set [5] (mean graphs), the “selectivity among tumour type subpanels (in words)” value is “selective for leukemia, colon cancer, and melanoma”.

Take `Cc1c(C)c(C)[c-](C)c1C.O=S(=O)([O-])C(F)(F)F.[Cl-].[Ir+3].c1ccc2nc3c4cccnc4c4ncccc4c3nc2c1` [[(η^5-C5Me5)IrCl(dppz)](CF3SO3)]: the “in vitro cytotoxic activity towards MCF-7 (in words)” value with MCF-7 cancer cell line was “possess in vitro cytotoxic activity”. For the same compound, the “in vitro cytotoxic activity towards HT-29 (in words)” value in the data set with HT-29 cancer cell line is listed as “possess in vitro cytotoxic activity”.

These data come from patent US9408853B2, “Iridium/rhodium anti-cancer compounds” (University of Warwick, priority 2010, dated 2016).
